Read-outs that look alike come from different tables or passages of the source.
Assays:
[1] = tested on: HIV-1 Y188L mutant strain; test: Anti-HIV activity in MT-4 cells (MTT method), Y188L; format: cell-based; conditions: Human immunodeficiency virus 1, MT4, read-out: EC50 Y188L
Description: (§1) All the target compounds were first evaluated for their antiviral activity against HIV-1 wild-type (WT) strain (IIIB) and the double-mutant strain K103N+Y181C (RES056) in the MT-4 cell line, using the MTT method. The potent inhibitors were selected to assess their efficacy against other strains resistant to NNRTIs, including L100I, K103N, Y181C, Y188L, E138K and the double-mutant strain F227L+V106A. The approved drugs NVP, EFV and ETR were selected as reference drugs. The biological evaluation results of the test compounds, presented as EC50 (anti-HIV potency), CC50 (cytotoxicity) and SI (selectivity index, CC50/EC50 ratio), are summarized in Table 1 and Table 2.
(§2) The antiviral potential and cytotoxic effects of the target compounds were assessed using the MTT assay in MT-4 cells, following established protocols. The HIV-1 (IIIB) strain, single mutant strains (L100I, K103N, Y181C, Y188L and E138K), double mutant strains (F227L + V106A and K103N + Y181C) and MT-4 cells were provided by the Rega Institute of Medicine at the University of Leuven, Belgium. These viral strains were propagated in MT-4 cells. The MT-4 cells were cultured in RPMI-1640 medium supplemented with 20 mM HEPES buffer (Life Technologies, Grand Island, NY, USA), 10% (v/v) heat-inactivated fetal calf serum (FCS), 2 mM L-glutamine, 0.1% sodium bicarbonate, and 20 μg/mL gentamicin. Cultures were maintained at 37 °C in a 5% CO2 atmosphere. The specific experimental procedures are detailed below.
(§3) Initially, concentrated solutions of the test compounds were prepared at 10-fold the final desired concentration and added to triplicate wells in 25 µL aliquots to assess their impacts on both mock and HIV-infected MT-4 cells. Using a Biomek 3000 robot, these were diluted in a 96-well flat-bottomed microplate by mixing with medium, creating a series of 5-fold steps down in concentration. Each test included control groups of untreated infected and mock-infected cells to establish baselines for comparison. We introduced HIV-1 strains, both wild-type (IIIB) and drug-resistant variants harboring mutations L100I, K103N, Y181C, Y188L, E138K and F227L + V106A and the double mutant K103N + Y181C (RES056), at concentrations of 100–300 CCID50, into their respective wells. These strains served to mimic both typical and resistant infections. Additionally, mock-infected wells received an equal volume of culture medium to assess the compounds’ impacts on uninfected cells, thereby determining cytotoxicity. MT-4 cells in the exponential growth phase were pelleted by centrifugation at 1000 rpm for 5 min, after which the supernatant was removed. The cells were resuspended to a density of 6 × 10^5 cells/mL, and 50 µL of this suspension was added to each well. Post-infection, on the fifth day, cell viability in both mock and infected conditions was measured via the MTT assay using a spectrophotometer. The CC50 was identified as the concentration of the compound that caused a 50% reduction in the viability of the mock-infected cells, indicating cytotoxicity. Conversely, the EC50 represented the concentration that provided 50% protection against viral cytopathic effects in infected cells, signifying antiviral potency.

[2] = tested on: HIV-1 Y181C mutant strain; test: Anti-HIV activity in MT-4 cells (MTT method), Y181C; format: cell-based; conditions: Human immunodeficiency virus 1, MT4, read-out: EC50 Y181C
Description: as §1, §2, §3

[3] = tested on: HIV-1 E138K mutant strain; test: Anti-HIV activity in MT-4 cells (MTT method), E138K; format: cell-based; conditions: for EC50: Human immunodeficiency virus 1, MT4, read-out: EC50 E138K
Description: as §1, §2, §3

[4] = molecular target: T1, WT HIV-1 RT (Human immunodeficiency virus type 1 group M subtype B, UniProt P03366); test: HIV-1 RT inhibition assay (Roche kit, ELISA); format: biochemical
T1 construct: viral nucleotides (dNTPs) and the HIV-1 RT enzyme in an incubation buffer; purchased Roche
Description: An assay kit for HIV-1 reverse transcriptase (RT) from Roche was utilized to assess RT inhibition. The kit provided all necessary components for the RT reaction, and the enzyme-linked immunosorbent assay (ELISA) methodology for the inhibition assay was executed according to the kit’s instructions. […] Unbound dNTPs were washed away, and an anti-[…] (DIG)-POD working solution was introduced. […] Excess anti-DIG-POD was removed, and a peroxidase substrate (ABTS) solution was applied to the MTPs. […] The percentage of the inhibitory activity of the RT inhibitors was calculated by formula, as given below:
% Inhibition = [O.D. value with RT but without inhibitors − O.D. value with RT and inhibitors]/[O.D. value with RT […] − O.D. value without RT and inhibitors].

[5] = tested on: HIV-1 double-mutant strain K103N+Y181C (RES056); test: microbe, parasite or virus in culture; format: cell-based; conditions: for EC50: Human immunodeficiency virus 1, MT4, read-out: EC50 RES056; for SI RES056: selectivity index, ratio CC50/EC50, RES056
Protocol: (§4) All the target compounds were first evaluated for their antiviral activity against HIV-1 wild-type (WT) strain (IIIB) and the double-mutant strain K103N+Y181C (RES056) in the MT-4 cell line, using the MTT method.
(§5) The antiviral potential and cytotoxic effects of the target compounds were assessed using the MTT assay in MT-4 cells, following established protocols. The HIV-1 (IIIB) strain, single mutant strains (L100I, K103N, Y181C, Y188L and E138K), double mutant strains (F227L + V106A and K103N + Y181C) and MT-4 cells were provided by the Rega Institute of Medicine at the University of Leuven, Belgium. These viral strains were propagated in MT-4 cells. […] The specific experimental procedures are detailed below.
as §3, with “We introduced HIV-1 strains, both wild-type (IIIB) and drug-resistant variants harboring mutations L100I, K103N, Y181C, Y188L, E138K and F227L + V106A and the double mutant K103N + Y181C (RES056), at concentrations of 100–300 CCID50, into their respective wells.” left out, “spectrophotometer.” for “spectrophotometer. The CC50 was identified as the concentration of the compound that caused a 50% reduction in the viability of the mock-infected cells, indicating cytotoxicity. Conversely, the EC50 represented the concentration that provided 50% protection against viral cytopathic effects in infected cells, signifying antiviral potency.”

[6] = tested on: HIV-1 L100I mutant strain; test: Anti-HIV activity in MT-4 cells (MTT method), L100I; format: cell-based; conditions: Human immunodeficiency virus 1, MT4, read-out: EC50 L100I
Description: as §1, §2, §3

[7] = Cytotoxicity in mock-infected MT-4 cells (MTT method); format: cell-based; conditions: human, CC50
Protocol: as §2, §3

[8] = tested on: HIV-1 K103N mutant strain; test: Anti-HIV activity in MT-4 cells (MTT method), K103N; format: cell-based; conditions: Human immunodeficiency virus 1, MT4, read-out: EC50 K103N
Description: as §1, §2, §3

[9] = tested on: HIV-1 double-mutant strain F227L+V106A; test: Anti-HIV activity in MT-4 cells (MTT method), F227L+V106A; format: cell-based; conditions: Human immunodeficiency virus 1, MT4, read-out: EC50 F227L/V106A
Description: as §1, §2, §3

[10] = tested on: HIV-1 wild-type (WT) strain (IIIB); test: Anti-HIV activity in MT-4 cells (MTT method), HIV-1 IIIB; format: cell-based; conditions: for EC50: Human immunodeficiency virus 1, IIIB, MT4, read-out: EC50 IIIB; for SI IIIB: selectivity index, ratio CC50/EC50, IIIB
Protocol: as §4, §5
as §3, with “We introduced HIV-1 strains, both wild-type (IIIB) and drug-resistant variants harboring mutations L100I, K103N, Y181C, Y188L, E138K and F227L + V106A and the double mutant K103N + Y181C (RES056), at concentrations of 100–300 CCID50, into their respective wells.” left out, “spectrophotometer.” for “spectrophotometer. The CC50 was identified as the concentration of the compound that caused a 50% reduction in the viability of the mock-infected cells, indicating cytotoxicity. Conversely, the EC50 represented the concentration that provided 50% protection against viral cytopathic effects in infected cells, signifying antiviral potency.”

[11] = tested on: HIV-1 wild-type (WT) and a panel of NNRTI-resistant strains; test: Anti-HIV activity in MT-4 cells (MTT method), WT and panel of NNRTI-resistant strains; format: cell-based
Description: as §1
The antiviral potential and cytotoxic effects of the target compounds were assessed using the MTT assay in MT-4 cells, following established protocols. […]
Initially, concentrated solutions of the test compounds were prepared at 10-fold the final desired concentration and added to triplicate wells in 25 µL aliquots to assess their impacts on both mock and HIV-infected MT-4 cells. […] Post-infection, on the fifth day, cell viability in both mock and infected conditions was measured via the MTT assay using a spectrophotometer. […]

[12] = tested on: MT-4 cells; test: Cytotoxicity in mock-infected MT-4 cells (MTT method); format: cell-based; conditions: human, 5 days
Protocol: as §2, §3

Row | SMILES | EC50 [1] | melting point | EC50 [2] | EC50 [3] | IC50 [4] | EC50 [5] | SI RES056 [5] | EC50 [6] | CC50 at 5 days [7] | EC50 [8] | EC50 [9] | EC50 [10] | SI IIIB [10] | fold superior to NVP, E138K ([3]; ratio of EC50 values against E138K, versus NVP) | EC50 ([11]; Human immunodeficiency virus 1, MT4, read-out: EC50 values against HIV-1 WT and a panel of NNRTI-resistant strains, range over strains, MT-4 cells) | EC50 ([11]; read-out: EC50 values against HIV-1 WT and a panel of NNRTI-resistant strains, range over strains, MT-4 cells) | CC50 [12]
1 | Cc1cc(C#N)cc(C)c1Oc1nc(Nc2ccc(NC(=O)[C@@H](N)Cc3c[nH]cn3)cc2)nc2ccsc12 [5e] | 2260 ± 733 nM | 158 to 160 °C | 2580 ± 477 nM | 260 ± 75 nM | 927 ± 64 nM | ≥ 4880 nM | ≤5 | 902 ± 311 nM | 25100 ± 2300 nM | 35 ± 9 nM | 1460 ± 979 nM | 52 ± 22 nM | 484 | – | – | – | –
2 | Cc1cc(C#N)cc(C)c1Oc1nc(Nc2ccc(NC(=O)[C@@H](N)C(C)C)cc2)nc2ccsc12 [5i] | 6910 ± 944 nM | 184 to 187 °C | > 6540 nM | 247 ± 107 nM | 1350 ± 148 nM | ≥ 6620 nM | ≤1 | 1200 ± 218 nM | 6540 ± 1340 nM | 45 ± 10 nM | 3030 ± 1760 nM | 42 ± 8 nM | 157 | – | – | – | –
3 | Cc1cc(C#N)cc(C)c1Oc1nc(Nc2ccc(NC(=O)C3CCCN3)cc2)nc2ccsc12 (centres unmarked) [5k] | 2360 ± 57 nM | 227 to 230 °C | 1850 ± 621 nM | 94 ± 22 nM | 1120 ± 74 nM | 7530 ± 280 nM | 4 | 601 ± 261 nM | 27900 nM | 31 ± 4 nM | 1760 ± 686 nM | 54 ± 18 nM | 513 | ~1.9 fold | 42 to 7530 nM | 31 to 2360 nM | 27900 ± 910 nM
4 | Cc1cc(C#N)cc(C)c1Oc1nc(Nc2ccc(NC(=O)[C@H](N)CC(C)C)cc2)nc2ccsc12 [5n] | 2110 ± 288 nM | – | 2160 ± 57 nM | 231 ± 154 nM | 2390 ± 86 nM | 5500 ± 1360 nM | 4 | 2120 ± 455 nM | 24300 ± 4280 nM | 131 ± 4 nM | 2030 ± 1180 nM | 62 ± 19 nM | 391 | – | – | – | –
5 | Cc1cc(C#N)cc(C)c1Oc1nc(Nc2ccc(NC(=O)[C@@H](N)Cc3ccccc3)cc2)nc2ccsc12 [5h] | 2390 ± 352 nM | 203 to 206 °C | 2720 ± 422 nM | 679 ± 569 nM | 1540 ± 119 nM | 8470 ± 483 nM | 3 | 1830 ± 208 nM | 23700 ± 521 nM | 73 ± 16 nM | 2110 ± 293 nM | 55 ± 12 nM | 429 | – | – | – | –
